Data published in patent US20040110265A1, “Recovery of enzyme activity from enveloped viruses” (priority 2001, published 2004).

Key:
Assay type in all cases: biochemical
human plasma polymerase [1] = assay: Resurrection of plasma polymerase activity after treatment with cysteine-modifying agents; settings: for Polymerase activity after second incubation with indicated substance (% of control): no destroying agent in first incubation; for Conditions required to reactivate polymerase activity treated with the agent: 3 mM agent, then reactivating substances; for Polymerase activity after second incubation with DTT (% of control) / Polymerase activity after second incubation with MSA (% of control) / Polymerase activity after second incubation with cysteine (% of control) / Polymerase activity after second incubation with glutathione (% of control): 3 mM destroying agent first
Experimental: A set of human plasma samples (60% plasma in water) was first incubated with 3 mM of indicated cysteine-modifying substance or water (as control) at room temperature for 1 hour. Serial dilutions of five potentially reactivating substances were then added and the samples were incubated for another hour. Each sample was finally diluted 1:20 and residual RT activity was determined with Cavidi® HS kit Lenti RT. The total reduction in substance concentration between sample incubation and RT assay was 200 times. The RT activities recovered were recalculated into percent of the activity of a control consisting of plasma incubated in absence of additions during both incubation steps.

human plasma RT = assay: Selective destruction of endogenous RT activity in plasma, protocol I; settings: EDTA plasma with disrupted lymphocytes, 1 hour at room temperature
Experimental: EDTA plasma with disrupted lymphocytes from a healthy blood donor and FIV diluted in inactivated foetal calf serum (totally devoid of plasma RT activity) were incubated for 1 hour at room temperature with indicated concentration of: A) 5,5′-dithiobis-(2-nitrobensoic acid), B) thimerosal. The samples were separated according to “Protocol for determination of retroviral RT from material which contains RT blocking antibodies”. The RT activities recovered were determined with an RT assay (Cavidi HS-kit Lenti RT).

human plasma polymerase [2] = assay: Elimination of plasma polymerase without purification (substance, then cysteamine); settings: one hour at room temperature, then 20 mM cysteamine; no purification
Experimental: A) EDTA plasma from a healthy blood donor, B) FIV virus diluted in inactivated FCS (devoid of RT activity) or C) in Dulbeco minimal essential medium with 5% FCS were diluted 1:1 and incubated with indicated concentration of 5,5′-dithiobis-(2-nitrobensoic acid) for one hour at room temperature (20° C.). Each sample was then serially diluted in fourfold steps in conditioning buffer (B). Cysteamine to a final concentration of 20 mM was then added to all samples and the set was incubated for another hour at room temperature. The RT activity of each sample was then determined using Cavidi® HS kit Lenti RT. 15 μl of each sample was added to 135 μl reaction mixture giving a final cysteamine concentration in assay of 2 mM. The RT activity recovered at the three first dilutions corresponding to 7.5, 1.9 and 0.5 μl sample per RT assay was recalculated into percentage of a control incubated in absence of substance and plotted against the substance concentration, see FIG. 6.

recombinant HIV 1 RT = target: T1, recombinant HIV 1 RT (Human immunodeficiency virus type 1 group M subtype B, UniProt P04585); assay: RT assay (Cavidi HS-kit Lenti RT) with added components, recombinant HIV 1 RT; settings: 12 ng odT, 100% = no addition
T1 construct: recombinant HIV 1 RT or FIV RT of cell culture origin was used as enzyme
Experimental: (§1) The effect of addition of indicated components to RT reaction mixture devoid of primer (Cavidi HS-kit Lenti RT) was investigated. EDTA plasma from two healthy blood donors (1 μl/assay), recombinant HIV 1 RT or FIV RT of cell culture origin was used as enzyme.

[3] = test system: FIV RT of cell culture origin; assay: RT assay (Cavidi HS-kit Lenti RT) with added components, FIV RT; settings: 12 ng odT, 100% = no addition
Experimental: as §1

[4] = test system: unidentified RT activity from human plasma; assay: RT assay (Cavidi HS-kit Lenti RT) with added components, human plasma polymerase; settings: 12 ng odT, 100% = no addition
Experimental: as §1

[5] = 0.1 M final concentration in RT assay
[6] = 1 mM final concentration in RT assay
[7] = 2.5 10^-6 M final concentration in RT assay

Row | Structure (SMILES) | Polymerase activity after second incubation with indicated substance (% of control) (human plasma polymerase [1]; 1.1 mM substance) [%] | Polymerase activity after second incubation with indicated substance (% of control) (human plasma polymerase [1]; 3.3 mM substance) [%] | Polymerase activity after second incubation with indicated substance (% of control) (human plasma polymerase [1]; 10 mM substance) [%] | Polymerase activity after second incubation with indicated substance (% of control) (human plasma polymerase [1]; 30 mM substance) [%] | Activity of indicated enzyme in RT assay, HIV (recombinant HIV 1 RT; [7]) [%] | Activity of indicated enzyme in RT assay, FIV [3, 7] [%] | Activity of indicated enzyme in RT assay, plasma 1 [4, 7] [%] | Activity of indicated enzyme in RT assay, plasma 2 [4, 7] [%] | also measured
1 | O[C@H](CS)[C@H](O)CS (racemic) [DTT, Dithiothreitol] | 260 | 613 | 767 | 860 |  |  |  |  | 
2 | O=C(O)c1cc(SSc2ccc([N+](=O)[O-])c(C(=O)O)c2)ccc1[N+](=O)[O-] [5,5′-Dithiobis-(2-nitrobenzoic acid)] |  |  |  |  |  |  |  |  | Concentration that totally eliminated the human plasma RT activity (human plasma RT): above 0.4 mM; Concentration after which human plasma polymerase activity was eliminated (human plasma polymerase [2]): above 0.47 mM; Conditions required to reactivate polymerase activity treated with the agent (human plasma polymerase [1]): required strongly reductive low molecular weight thiols for activation; Polymerase activity after second incubation with DTT (% of control) (human plasma polymerase [1]; 1.1 mM DTT): 0%; Polymerase activity after second incubation with MSA (% of control) (human plasma polymerase [1]; 1.1 mM MSA): 0%; Polymerase activity after second incubation with DTT (% of control) (human plasma polymerase [1]; 3.3 mM DTT): 1%; Polymerase activity after second incubation with MSA (% of control) (human plasma polymerase [1]; 3.3 mM MSA): 0%; Polymerase activity after second incubation with DTT (% of control) (human plasma polymerase [1]; 10 mM DTT): 143%; Polymerase activity after second incubation with MSA (% of control) (human plasma polymerase [1]; 10 mM MSA): 0%; Polymerase activity after second incubation with DTT (% of control) (human plasma polymerase [1]; 30 mM DTT): 122%; Polymerase activity after second incubation with MSA (% of control) (human plasma polymerase [1]; 30 mM MSA): 0%; Polymerase activity after second incubation with cysteine (% of control) (human plasma polymerase [1]; 30 mM cysteine): 7%; Polymerase activity after second incubation with glutathione (% of control) (human plasma polymerase [1]; 30 mM glutathione): 2%
3 | Cc1ccc(S(=O)(=O)[N-]Cl)cc1.[Na+] [Chloramine T] |  |  |  |  |  |  |  |  | Conditions required to reactivate polymerase activity treated with the agent (human plasma polymerase [1]): required strongly reductive low molecular weight thiols for activation; Polymerase activity after second incubation with DTT (% of control) (human plasma polymerase [1]; 1.1 mM DTT): 2%; Polymerase activity after second incubation with MSA (% of control) (human plasma polymerase [1]; 1.1 mM MSA): 6%; Polymerase activity after second incubation with DTT (% of control) (human plasma polymerase [1]; 3.3 mM DTT): 51%; Polymerase activity after second incubation with MSA (% of control) (human plasma polymerase [1]; 3.3 mM MSA): 0%; Polymerase activity after second incubation with DTT (% of control) (human plasma polymerase [1]; 10 mM DTT): 80%; Polymerase activity after second incubation with MSA (% of control) (human plasma polymerase [1]; 10 mM MSA): 1%; Polymerase activity after second incubation with cysteine (% of control) (human plasma polymerase [1]; 10 mM cysteine): 4%; Polymerase activity after second incubation with glutathione (% of control) (human plasma polymerase [1]; 10 mM glutathione): 3%; Polymerase activity after second incubation with DTT (% of control) (human plasma polymerase [1]; 30 mM DTT): 94%; Polymerase activity after second incubation with MSA (% of control) (human plasma polymerase [1]; 30 mM MSA): 0%; Polymerase activity after second incubation with cysteine (% of control) (human plasma polymerase [1]; 30 mM cysteine): 9%
4 | [Cl-].[K+] [KCl] |  |  |  |  |  |  |  |  | Activity of indicated enzyme in RT assay, HIV (recombinant HIV 1 RT; [5]): 87%; Activity of indicated enzyme in RT assay, FIV [3, 5]: 110%; Activity of indicated enzyme in RT assay, plasma 1 [4, 5]: 17%; Activity of indicated enzyme in RT assay, plasma 2 [4, 5]: 20%
5 | O=C(O)CC(S)C(=O)O (centres unmarked) [MSA, Mercaptosuccinic acid] | 109 | 110 | 64 | 7 |  |  |  |  | 
6 | O=C([O-])P(=O)(O)O.O=C([O-])P(=O)(O)O.O=C([O-])P(=O)(O)O.[Na+].[Na+].[Na+] [PFA, trisodium phosophonoformate] |  |  |  |  |  |  |  |  | Activity of indicated enzyme in RT assay, HIV (recombinant HIV 1 RT; [6]): 1%; Activity of indicated enzyme in RT assay, plasma 1 [4, 6]: 92%; Activity of indicated enzyme in RT assay, plasma 2 [4, 6]: 94%
7 | NCCS [cysteamine] | 15 | 9 | 6 | 6 |  |  |  |  | 
8 | N[C@@H](CS)C(=O)O [cysteine] | 72 | 82 | 145 | 198 |  |  |  |  | 
9 | Nc1ncnc2c1ncn2[C@H]1CC[C@@H](COP(=O)(O)OP(=O)(O)OP(=O)(O)O)O1 [ddATP] |  |  |  |  | 90 | 79 | 94 | 105 | 
10 | Nc1ccn([C@H]2CC[C@@H](COP(=O)(O)OP(=O)(O)OP(=O)(O)O)O2)c(=O)n1 [ddCTP] |  |  |  |  | 89 | 75 | 94 | 103 | 
11 | Nc1nc2c(ncn2[C@H]2CC[C@@H](COP(=O)(O)OP(=O)(O)OP(=O)(O)O)O2)c(=O)[nH]1 [ddGTP] |  |  |  |  | 94 | 93 | 103 | 109 | 
12 | Cc1cn([C@H]2CC[C@@H](COP(=O)(O)OP(=O)(O)OP(=O)(O)O)O2)c(=O)[nH]c1=O [ddTTP] |  |  |  |  | 18 | 28 | 7 | 9 | 
13 | N[C@@H](CCC(=O)N[C@@H](CS)C(=O)NCC(=O)O)C(=O)O [glutathione] | 72 | 78 | 80 | 13 |  |  |  |  | 
